Experimental data taken from patent US7659426B2, “Target protein of anticancer agent and novel anticancer agent (spnal) corresponding thereto” (Reverse Proteomics Research Institute Co., Ltd., priority 2003, dated 2010).
Entries after “also recorded” stand apart in the source; their conditions may differ.

Tests used:
COX1 = COX1 (Homo sapiens, UniProt P23219); set-up: key to COX1 inhibitory effect: x: weak effect; ∘: definite inhibitory effect; conditions: cited from earlier work; for inhibitory effect on COX1: Cancer Research, 57, pp. 2909-2915 (1997)
COX2 = target: T1, COX2 (Homo sapiens, UniProt P35354); conditions: Cancer Research, 57, pp. 2909-2915 (1997); cited from earlier work
T1 sequence (P35354 18-604): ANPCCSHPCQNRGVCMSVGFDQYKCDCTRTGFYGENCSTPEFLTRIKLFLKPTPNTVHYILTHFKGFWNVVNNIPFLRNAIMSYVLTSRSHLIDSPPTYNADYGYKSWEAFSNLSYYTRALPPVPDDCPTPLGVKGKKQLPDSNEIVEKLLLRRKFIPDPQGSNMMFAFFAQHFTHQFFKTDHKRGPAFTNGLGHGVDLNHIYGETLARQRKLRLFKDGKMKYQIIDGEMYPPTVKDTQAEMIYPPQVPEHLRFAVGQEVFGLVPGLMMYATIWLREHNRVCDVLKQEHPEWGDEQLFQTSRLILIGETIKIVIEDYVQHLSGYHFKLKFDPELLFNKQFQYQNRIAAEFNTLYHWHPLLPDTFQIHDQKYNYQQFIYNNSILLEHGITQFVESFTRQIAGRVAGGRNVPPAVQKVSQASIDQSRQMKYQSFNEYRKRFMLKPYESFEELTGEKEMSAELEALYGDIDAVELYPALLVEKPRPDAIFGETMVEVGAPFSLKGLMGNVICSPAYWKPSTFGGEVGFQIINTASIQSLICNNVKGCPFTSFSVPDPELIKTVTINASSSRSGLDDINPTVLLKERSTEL

[1] = target: T2, KSRP (MARTA1, a rat protein having a high homology to KSRP) (Rattus norvegicus, UniProt Q99PF5); assay: Binding experiments: compound-immobilized resins with rat brain lysate, SDS gel (FIG. 1); conditions: 4° C.
T2 construct: from tissue; host or cells: rat brain
T2 sequence (Q99PF5 1-721): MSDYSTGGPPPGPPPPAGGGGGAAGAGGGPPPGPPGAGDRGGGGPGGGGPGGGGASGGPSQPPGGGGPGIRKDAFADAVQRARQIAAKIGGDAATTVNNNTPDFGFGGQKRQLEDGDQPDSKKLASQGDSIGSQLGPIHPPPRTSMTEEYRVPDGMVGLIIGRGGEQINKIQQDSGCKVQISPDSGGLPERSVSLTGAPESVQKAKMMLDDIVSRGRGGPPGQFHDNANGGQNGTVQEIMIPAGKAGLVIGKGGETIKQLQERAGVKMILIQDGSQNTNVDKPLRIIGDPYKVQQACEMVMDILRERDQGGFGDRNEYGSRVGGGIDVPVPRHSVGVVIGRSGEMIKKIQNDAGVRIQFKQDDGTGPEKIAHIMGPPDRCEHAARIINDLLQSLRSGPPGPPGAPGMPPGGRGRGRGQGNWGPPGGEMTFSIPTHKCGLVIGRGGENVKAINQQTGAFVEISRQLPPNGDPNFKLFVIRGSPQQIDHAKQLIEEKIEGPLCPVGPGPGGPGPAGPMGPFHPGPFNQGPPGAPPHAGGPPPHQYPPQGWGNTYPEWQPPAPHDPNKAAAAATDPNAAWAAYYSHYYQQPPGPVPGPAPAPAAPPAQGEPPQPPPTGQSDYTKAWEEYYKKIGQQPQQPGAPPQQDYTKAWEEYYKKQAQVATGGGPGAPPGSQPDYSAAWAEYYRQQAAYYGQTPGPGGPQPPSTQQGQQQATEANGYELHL
Protocol: The rat brain (2.4 g) was mixed in a mixture A (25 mM Tris-HCl pH 8.0, 0.5% Tween 20, 300 μM DCC (24 ml; N,N-diethyldithiocarbamate sodium)) and prepared as a homogenate, which was then centrifuged at 9,000 rpm for 10 minutes. The centrifugal supernatant was collected and further centrifuged at 50,000 rpm for 30 minutes. The supernatant thus obtained was used as the lysate.
Each resin (10 μl) and lysate (1 ml) were gently shaken at 4° C. for about 1 hour. Thereafter, centrifugal operation was performed, and each supernatant was collected carefully. Then, each supernatant was again mixed with a fresh compound-bound resin (10 μl). At this time, the separated compound-bound resin was kept to stand at 4° C. as the resin from the first binding experiment. After the mixture was gently stirred for about 3 hours, centrifugal operation was performed, and the supernatant was removed. Subsequently, the compound-bound resin obtained in the second binding experiment and the resin obtained in the first binding experiment were gently washed with mixture A about five times to remove substances other than the protein bound onto the resin to the maximum possible extent. […]

COX1, sequence (P23219 24-599): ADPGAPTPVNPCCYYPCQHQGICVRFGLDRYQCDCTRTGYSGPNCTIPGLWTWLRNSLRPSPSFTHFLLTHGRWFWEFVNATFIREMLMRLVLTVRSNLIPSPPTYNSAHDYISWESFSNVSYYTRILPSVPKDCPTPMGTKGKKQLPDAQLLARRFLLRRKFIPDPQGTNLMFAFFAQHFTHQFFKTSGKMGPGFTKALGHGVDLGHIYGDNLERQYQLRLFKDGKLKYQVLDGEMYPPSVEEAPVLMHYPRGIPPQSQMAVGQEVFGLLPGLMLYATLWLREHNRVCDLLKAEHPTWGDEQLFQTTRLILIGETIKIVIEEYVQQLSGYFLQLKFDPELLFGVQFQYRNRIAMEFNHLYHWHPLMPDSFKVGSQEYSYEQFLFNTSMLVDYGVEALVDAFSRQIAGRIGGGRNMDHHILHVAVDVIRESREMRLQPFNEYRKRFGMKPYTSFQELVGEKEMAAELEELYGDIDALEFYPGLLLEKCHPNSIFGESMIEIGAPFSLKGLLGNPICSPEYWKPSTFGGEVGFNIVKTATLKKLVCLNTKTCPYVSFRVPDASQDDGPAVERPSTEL

Row | Compound | inhibitory effect on COX1 (COX1) | COX1 inhibitory effect (COX1) | inhibitory effect on COX2 (COX2) | binding of KSRP (MARTA1) to the compound-immobilized resin [1]
1 | CC1=C(CC(=O)O)c2cc(F)ccc2/C1=C\c1ccc(S(C)(=O)=O)cc1 [Sulindac sulfone] | only weak inhibitory effect | x | only weak inhibitory effect | 
2 | CSc1ccc(/C=C2/C(C)=C(CC(=O)O)c3cc(F)ccc32)cc1 [Sulindac sulfide] |  |  |  | other than the resin immobilized with sulindac sulfide; also recorded: other than the resin wherein sulindac sulfide was immobilized
3 | CC(=O)O[C@H]1C(=O)[C@@]2(C)[C@H]([C@H](OC(=O)c3ccccc3)[C@]3(O)C[C@H](OC(=O)[C@H](O)[C@@H](NC(=O)c4ccccc4)c4ccccc4)C(C)=C1C3(C)C)[C@]1(OC(C)=O)CO[C@@H]1C[C@@H]2O [Taxol] |  |  |  | binds to KSRP
4 | CC1=C(CC(=O)O)c2cc(F)ccc2/C1=C\c1ccc([S+](C)[O-])cc1 (centres unmarked) [Sulindac] | only weak inhibitory effect | x | only weak inhibitory effect | 
